Experimental data published in patent US5780242A, “Bioassay for the screening of ION channel active molecules” (priority 1995, dated 1998).
“Also recorded” adds a separate entry of the source. Where a name gives a salt, the structure may show the parent alone. Read-outs that look alike come from different tables or passages of the source.

Columns and labels:
[1] = local anesthesia; cited from earlier work
[2] = cited from earlier work
[3] = tested on: AChE preparation (sodium channel neuroreceptor); assay: Circular dichroism bioassay at 222 nm: temperature-dependent helix-coil transition of the AChE/neuroreceptor preparation in presence of drug; format: binding, bovine; details: for molar ellipticity [θ] at 222 nm, 30° C. / molar ellipticity [θ] at 222 nm, 35° C. / molar ellipticity [θ] at 222 nm, 38° C. / stabilization of the alpha helix / prevention of the helical transition between 30° C. and 35° C.: pH 7.0; for temperature needed to elicit the helix-coil transition in presence of drug: versus preparation without drug; for stabilization of the alpha helix / prevention of the helical transition between 30° C. and 35° C.: fresh preparations
Experimental: (§1) A baseline of the solution is obtained using 222 nm without removing the cell after a run is begun to allow for thermal stabilization. Prior to adding the drug to the enzyme, a blank run consisting only of the drug at the same concentration used in the enzyme study is made. To obtain control data, temperature changes of 5 degrees centigrade in the neuroreceptor solution alone are made using a Forma water bath. Then the drug is added to a sample of the purified neuroreceptor solution, and the stabilizing effect of the drug on the temperature-related conformational changes is noted. All temperature runs are allowed to equilibrate for one hour before data is collected.
All studies are made in 1 mm, 5 mm and 2 mm cells using a Jouan Dichrograph II at 1×10^-5 O.D./mm sensitivity. The sample solution consists of 30 mM Na2 HPO4, pH 7.0, and the enzyme. Protein concentration is determined empirically and then measured by the Lowry method after the run. Lowry, et al., J Biol Chem, 193: 265-275 (1951). Samples are taken directly from G-200 fractions or DEAE-Cellulose fractions previously dialyzed against 30 mM Na2 HPO4, pH 7.0.
Thermal studies are carried out in the 10 mm cell. Care must be taken not to misplace the cell in the cell holder to avoid spectral changes. Additionally, since the absorption is affected by pressure, the ORD cell's glass stopper must be gently seated. for the thermal runs of Prep A, a micro-thermometer is used to record the temperature in the ORD cell after each spectral recording.
The routine consists of beginning a CD spectral scan followed by running each activity blank at that temperature using 3 minute reading intervals. The next CD spectral scan is made after recording the temperature in the ORD cell. The data recorded consists of duplicates of CD spectra with cell temperatures varying 5 degrees centigrade at 222 nm.
Pilocarpine, reagent grade, was used at 1.33×10^-6 M in the sample solutions.
A buffer solution of 20 mM Na2 HPO4, pH 7.0, gives minimal absorption problems in the range 300 nm to 195 nm. Enzyme solutions contain from 21 μg/ml to 31 μ/ml of protein in buffer. Total ORD cell volume is 3.0 ml.
A buffer solution of 30 Na2 HPO4, pH 7.0,gave minimal absorption problems in the range 300 nm to 195 nm. Enzyme solutions contained from 21 μg/ml to 31 μg/ml of protein in buffer. Total ORD cell volume was 3.0 ml. Drugs were added to ORD cells in 0.002 ml volumes in order to minimize dilution effects. A Roussel-Jouan Dichrograph 11 sensitive to 1×10^-5 dichroic absorption unit per recording mm was used with a 10 mm, strain free, quartz ORD cell (Pyrocell, New Jersey, U.S.A.).
(§2) Again CD spectra were obtained using the above thermal apparatus over the range of 230 nm to 215 nm. A baseline of the enzyme solution was obtained using 300 nm to 285 nm without removing the cell after a run was begun. Prior to adding the drug to the enzyme, a blank run consisting only of the drug at the same concentration used in the enzyme study was made. To obtain control data, temperature changes in the enzyme solution alone were made using a Forma water bath. Then the drug was added to another enzyme solution with the same protein concentration which came from the stock solution, and temperature effects were noted. All temperature runs were allowed to equilibrate for one hour before data were collected.
Data for CD was expressed so that experimental values could be compared with published helix composition values. All graphs and raw data were expressed as molar el lipticity [.THETA.] based on mean residue molecular weight because the true molecular weight of AChE has not been established for the brain enzyme.

[4] = Circular dichroism blank run of the drug alone; format: physicochemical; details: for ellipticity of drug alone: 215 nm to 230 nm / 222 nm; for molar ellipticity [θ] of drug alone, 30° C.: no enzyme, 222 nm
Experimental: as §1, §2

AChE = AChE (Bos taurus, UniProt P23795); assay: Salt study: effect of MgSO4 on AChE of Prep E (AChE activity and CD helix); format: biochemical, bovine
Experimental: An AChE preparation (Prep E) was made using the scheme of S. L. Chan, supra "Purification of Beef Brain Acetylcholinesterase" Proceedings of the Western Pharmacology Society, 13:43-47, 1970. The AChE in 0.4M NaCl/[…] Na2 HPO4 was lyophilized and resuspended in 2.5 ml deionized water. The CD spectrum was made, and activity was checked qualitatively. The sample was dialyzed against 100 mM MgSO4 for 12 hours. AChE activity was qualitatively checked with CD. The sample was then redialyzed against 0.4M NaCl/30 mM Na2 HPO4 for 12 hours, checked for AChE activity and for CD absorption.
Activity of AChE was determined at 25° C.-30° C. and pH 8.0 by the spectrophotometric method of Ellman et al (Biochemical Pharmacology, 7:88-95 (1961). Measurements were made in the Hitachi Perkin-Elmer Model 139 spectrophotometer at 412 nm and 0.1 nm slit. One unit of AChE activity was defined as 1 μM of ATC (acetyl thiocholine iodide,Sigma) hydrolyzed per hour at 25° C. Specific activity is expressed as μmoles ATC hydrolyzed/ mg protein/ hour.

[5] = mice; cited from earlier work
[6] = rats; cited from earlier work
[7] = 7 Day old AChE with drug, 222 nm
[8] = AChE Prep B (7 Days Later) plus drug 1.33×10^-6 M, 222 nm
[9] = AChE Prep B (7 Days Later) plus drug 1.33×10^-6 M
[10] = AChE Prep B (7 Days Later), 222 nm
[11] = Fresh AChE (Prep C) plus drug 1.33×10^-6 M, 222 nm
[12] = Fresh AChE (Prep C) plus drug 1.33×10^-6 M
[13] = Fresh AChE (Prep B) plus drug 1.33×10^-6 M

AChE, sequence (P23795 31-613): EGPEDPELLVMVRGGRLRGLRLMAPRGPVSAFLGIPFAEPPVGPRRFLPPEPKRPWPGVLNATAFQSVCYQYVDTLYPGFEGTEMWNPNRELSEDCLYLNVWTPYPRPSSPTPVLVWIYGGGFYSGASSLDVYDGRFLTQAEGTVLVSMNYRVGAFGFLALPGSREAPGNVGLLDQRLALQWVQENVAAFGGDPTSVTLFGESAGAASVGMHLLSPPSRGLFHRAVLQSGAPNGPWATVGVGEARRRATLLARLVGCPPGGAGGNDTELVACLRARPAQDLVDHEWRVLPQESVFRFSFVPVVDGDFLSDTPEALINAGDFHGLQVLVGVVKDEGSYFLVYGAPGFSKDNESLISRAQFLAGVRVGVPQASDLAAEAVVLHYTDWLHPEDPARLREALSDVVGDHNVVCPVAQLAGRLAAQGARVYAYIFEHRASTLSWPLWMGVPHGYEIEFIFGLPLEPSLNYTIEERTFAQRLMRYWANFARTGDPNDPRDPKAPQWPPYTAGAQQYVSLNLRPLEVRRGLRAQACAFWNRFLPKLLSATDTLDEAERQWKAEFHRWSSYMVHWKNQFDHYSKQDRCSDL

CCN(CC)CC(=O)Nc1c(C)cccc1C [Lidocaine, Lidocaine hydrochloride monohydrate]
duration of effective action [1]: 1 to 2 h
allergic reactions ([2]; compared with procaine): fewer known allergic reactions than procaine
side effect ([2]; in vivo): drowsiness
% Loss of Helix (30° C. to 35° C.) [3, 7]: 16.8%
[θ]30 - [θ]35 [3, 8]: 600
molar ellipticity [θ] at 222 nm, 30° C. [3, 9]: -3,590
Difference of Lidocaine from Above AChE, 30° C. [3, 10]: +540
Difference of Lidocaine from Above AChE, 35° C. [3, 10]: +480
[θ]30 - [θ]35 [3, 11]: 100
[θ]38 - [θ]35 [3, 11]: 770
molar ellipticity [θ] at 222 nm, 30° C. [3, 12]: -5,560
molar ellipticity [θ] at 222 nm, 35° C. [3, 12]: -5,500
molar ellipticity [θ] at 222 nm, 38° C. [3, 12]: -4,830
% Loss of Helix (30° C. to 35° C.) ([3]; Fresh AChE with drug, 222 nm): 1.8%
% Loss of Helix (35° C. to 40° C.) ([3]; Fresh AChE with drug, 222 nm): 13.6%
temperature needed to elicit the helix-coil transition in presence of drug [3]: Higher temperatures were necessary
ellipticity of drug alone [4]: no ellipticity

O=S(=O)([O-])[O-].[Mg+2] [MgSO4]
random coil at 195 nm (AChE; AChE Prep E in 100 mM MgSO4, CD): 35%
AChE Qualitative Activity (AChE; Prep E dialyzed against 100 mM MgSO4 for 12 hours): 0
Helix 220 nm (AChE; Prep E dialyzed against 100 mM MgSO4 for 12 hours, CD): 16 mm

CN1CCCC1c1cccnc1 (stereo not drawn) [Nicotine]
molar ellipticity [θ] of drug alone, 30° C. [4]: -21,400

CC[C@@H]1C(=O)OC[C@@H]1Cc1cncn1C [Pilocarpine]
% Loss of Helix (30° C. to 35° C.) [3, 7]: 20.7%
[θ]30 - [θ]35 [3, 8]: 720
molar ellipticity [θ] at 222 nm, 30° C. [3, 9]: -3,590
molar ellipticity [θ] at 222 nm, 35° C. [3, 9]: -2,280
[θ]30 - [θ]35 ([3]; Fresh AChE (Prep B) plus drug 1.33×10^-6 M, 222 nm): 800
molar ellipticity [θ] at 222 nm, 30° C. [3, 13]: -11,300
molar ellipticity [θ] at 222 nm, 35° C. [3, 13]: -10,500
[θ]30 - [θ]35 [3, 11]: 170
[θ]38 - [θ]35 [3, 11]: 780
molar ellipticity [θ] at 222 nm, 30° C. [3, 12]: -4,490
molar ellipticity [θ] at 222 nm, 35° C. [3, 12]: -4,320
molar ellipticity [θ] at 222 nm, 38° C. [3, 12]: -3,540
% Loss of Helix (30° C. to 35° C.) ([3]; Fresh AChE with drug, 222 nm): 7.1%
% Loss of Helix (35° C. to 40° C.) ([3]; Fresh AChE with drug, 222 nm): 17.5%
stabilization of helix in preparations not freshly prepared ([3]; enzyme preparations more than one week old / not freshly prepared): not observed; also recorded: will not be protected
stabilization of the alpha helix / prevention of the helical transition between 30° C. and 35° C. ([3]; 222 nm): appear to stabilize the helix
stabilization of the alpha helix / prevention of the helical transition between 30° C. and 35° C. ([3]; 222 nm, listed as pilocarpine): prevent the helical transition
temperature needed to elicit the helix-coil transition in presence of drug [3]: Higher temperatures were necessary
ellipticity of drug alone [4]: positive ellipticity
molar ellipticity [θ] of drug alone, 30° C. [4]: +5,450

CCCCN1CCCCC1C(=O)Nc1c(C)cccc1C (stereo not drawn) [bupivacaine]
duration of effective action [1]: 4 to 18 h

CCCN(CC)C(CC)C(=O)Nc1c(C)cccc1C (stereo not drawn) [etidocaine]
duration of effective action [1]: 4 to 18 h

Cc1cccc(C)c1NC(=O)C1CCCCN1C (stereo not drawn) [mepivacaine]
duration of effective action [1]: 2 to 3 h
onset of action [1]: rapid

Cc1ccccc1N [ortho-toliudine]
carcinogenicity [5]: carcinogenic
carcinogenicity [6]: carcinogenic

CCCNC(C)C(=O)Nc1ccccc1C (stereo not drawn) [prilocaine]
duration of effective action [1]: 2 to 3 h
side effect ([2]; doses greater than 400 mg): methemoglobinemia
side effect ([2]; in vivo): drowsiness

CCN(CC)CCOC(=O)c1ccc(N)cc1 [procaine]
duration of effective action [1]: 1 to 2 h
